# Reference: US8394854B2, “Use of L-carnitine for the treatment of cardiovascular diseases” (Sigma-Tau Industrie Farmaceutiche Riunite S.p.A., priority 2004, dated 2013)
# Legend:
# [1] = tested on: patients presenting infarction symptoms; settings: 2 g/day; 6 in the control group; cited from earlier work
# [2] = tested on: patients with acute myocardial infarction; experiment: Multicentre randomized, double-blind, placebo-controlled, parallel-group clinical trial of L-carnitine; type: in vivo, human; settings: for RR (Relative Risk) of death at 1 mo. / RR (Relative Risk) of death at 2 mos. / RR (Relative Risk) of death at 6 mos. / RR (Relative Risk) of death at 12 mos. / RR (Relative Risk) of death at 3 days / RR (Relative Risk) of death at 5 days / RR (Relative Risk) of death at 7 days: vs placebo
# Protocol: A clinical trial was conducted aimed at evaluating the effect of the administration of L-carnitine on short-, medium- and long-term incidence and mortality in patients with acute myocardial infarction. The trial design was that of a multicentre randomized, double-blind, placebo-controlled, parallel-group trial.
# A total of 2,296 patients of male and female sex were recruited, aged below 80 years, subdivided into groups. The study compound, L-carnitine, was administered at a dose of 9 g/day i.v. for the first 5 days and 4 g/day by mouth from day 6 to day 180.
# In particular, in one group of patients the L-carnitine was administered intravenously dissolved in sterile saline solution, while in another group of patients it was administered dissolved in normal 5% glucose solution used in hospital departments.
# The control group received the standard therapy used for the treatment of infarct, without L-carnitine.
# Concomitant therapies were administered according to the procedures adopted in local clinical practice.
# The efficacy parameters evaluated were reduction of mortality, reduction of the number of days spent in intensive care, and reduction of the number of episodes of post-infarction heart failure.
# • Typical chest pain lasting >30 minutes which is not relieved by oral or i.v. administration of nitrates; • ECG with ST-segment elevation 0.2 mV in D, and in lead aVL and/or in at least two contiguous precordial leads; • Time interval elapsing between onset of symptoms and study randomisation <12 hours; • Age <80 years; • Written informed consent. Exclusion Criteria • Pregnancy or breast-feeding; • Haemodynamically significant valvulopathy; • Hypertrophic or dilatory cardiomyopathy; • Congenital cardiopathy; • Clinically severe liver and kidney disease; • Alcohol abuse; • Other diseases associated with a poor life expectancy; • Conditions making poor compliance with treatment and/or periodic examinations likely; • Inclusion in another trial.
# [3] = tested on: infarction patients; settings: two deaths also in the placebo group; cited from earlier work
# [4] = tested on: infarction patients; settings: L-carnitine administered within 24 hours of the infarction; 14 in the control group; cited from earlier work
# [5] = tested on: patients with acute myocardial infarction; settings: 3 grams every 8 hours (9 grams a day) intravenously for 48 hours; control saline solution; cited from earlier work
# [6] = tested on: experimental cardiac ischaemia model; settings: dogs; cited from earlier work
# [7] = tested on: patients with signs of infarction; settings: 40 mg/kg/day (2.8 g/day), cited from earlier work
# [8] = all patients, L-carnitine in saline or glucose solution
# [9] = group treated with L-carnitine dissolved in glucose solution
# [10] = L-carnitine dissolved in glucose solution
# [11] = all patients, saline or glucose solution
smiles,measurement,setting,value
C[N+](C)(C)C[C@H](O)CC(=O)[O-] [L-carnitine],number of deaths at 28 days after the start of treatment,[1],4
same,NUMBER OF DEATHS AT: 1 mo.,[2]; [8],45
same,NUMBER OF DEATHS AT: 1 mo.,[2]; [9],22
same,RR (Relative Risk) of death at 1 mo.,[2]; [10],0.79
same,RR (Relative Risk) of death at 1 mo.,[2]; [11],0.78
same,NUMBER OF DEATHS AT: 2 mos.,[2]; [8],53
same,NUMBER OF DEATHS AT: 2 mos.,[2]; [9],26
same,RR (Relative Risk) of death at 2 mos.,[2]; [10],0.80
same,RR (Relative Risk) of death at 2 mos.,[2]; [11],0.81
same,NUMBER OF DEATHS AT: 6 mos.,[2]; [8],64
same,NUMBER OF DEATHS AT: 6 mos.,[2]; [9],32
same,RR (Relative Risk) of death at 6 mos.,[2]; [10],0.87
same,RR (Relative Risk) of death at 6 mos.,[2]; [11],0.86
same,NUMBER OF DEATHS AT: 12 mos.,[2]; [8],67
same,NUMBER OF DEATHS AT: 12 mos.,[2]; [9],33
same,RR (Relative Risk) of death at 12 mos.,[2]; [10],0.88
same,RR (Relative Risk) of death at 12 mos.,[2]; [11],0.89
same,NUMBER OF DEATHS AT: 3 days,"[2]; all patients, L-carnitine in saline or glucose solution, 9 g/day i.v. 5 days then 4 g/day oral",23
same,NUMBER OF DEATHS AT: 3 days,[2]; [9],11
same,RR (Relative Risk) of death at 3 days,[2]; [10],0.67
same,RR (Relative Risk) of death at 3 days,[2]; [11],0.68
same,NUMBER OF DEATHS AT: 5 days,[2]; [8],27
same,NUMBER OF DEATHS AT: 5 days,[2]; [9],13
same,RR (Relative Risk) of death at 5 days,[2]; [10],0.64
same,RR (Relative Risk) of death at 5 days,[2]; [11],0.63
same,NUMBER OF DEATHS AT: 7 days,[2]; [8],31
same,NUMBER OF DEATHS AT: 7 days,[2]; [9],15
same,RR (Relative Risk) of death at 7 days,[2]; [10],0.70
same,RR (Relative Risk) of death at 7 days,[2]; [11],0.69
same,deaths in the group treated with L-carnitine,[3],two
same,patients in the treated group who died over the entire hospitalisation period,[4],11
same,"mortality at 7 days after the start of treatment, control group vs treated group",[5],no significant difference
same,enhancing cardiac lipid metabolism,[6],active
same,difference between patients treated within 4 hours of onset of symptoms of infarction and patients treated 4 hours after onset,[7],no statistically significant difference
same,number of deaths in the treated group,[7]; one in the control group,none
